{"source": "patent US20200131669A1", "about": "“CYCLIC PEPTIDE COMPOUND HAVING HIGH MEMBRANE PERMEABILITY, AND LIBRARY CONTAINING SAME” (Chugai Seiyaku Kabushiki Kaisha, priority 2017, published 2020)", "note": "Starred links: 1 amine or outer side, 2 acyl side, 3 side chain; linkers in the order of their positions; H or OH if unused. Positions of bridges follow the written chain, without caps; N, C: chain ends. Non-standard residues stand in square brackets, D forms with d. Residues, ends and D or L forms follow the SMILES beside them. *: point of attachment. NMePhe(3-Cl) = CN[C@@H](Cc1cccc(Cl)c1)C(=O)O; X9 = O=C(CN(CCOc1ccccc1)[*:1])[*:2]; Gly(N-(CH2)2OEt) = CCOCCNCC(=O)O; NMeF = CN[C@@H](Cc1ccccc1)C(=O)O; NMeI = CC[C@H](C)[C@H](NC)C(=O)O; Butyl(3-Me,3-OH) = CC(C)(O)CC*; NMeL = CN[C@@H](CC(C)C)C(=O)O; Propyl(2R-OH) = C[C@@H](O)C*; NMeV = CN[C@H](C(=O)O)C(C)C; NMeAbu = CC[C@H](NC)C(=O)O; NMeA = CN[C@@H](C)C(=O)O; Piperidide = C1CCN(*)CC1; Abu = CC[C@H](N)C(=O)O; CH2CMe2OH = CC(C)(O)C*; NBuGly = CCCCNCC(=O)O; Isopentyl = CC(C)CC*; NPrGly = CCCNCC(=O)O; Sar = CNCC(=O)O; tBu = CC(C)(C)*", "data": [{"assay": "Caco-2 membrane permeability, improved method as used in the following Examples (96-well, 20 to 24 h preincubation)", "type": "in vitro ADME", "details": "human, Caco-2, Caco-2", "procedure,_shortened": "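Caco-2 monolayers were grown three weeks and preincubated 20–24 h at 37 °C with compound in DMEM+FaSSIF (1% DMSO) apically. The assay then used compound in FaSSIF/HBSS (1% DMSO, pH 6.0) apically and HBSS with 4% BSA (pH 7.4) basally. Basal samples were taken at 180 min for LC/MS, and Papp (cm/sec) was calculated.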", "units": {"Papp A→B at 180 min": "×10⁻⁶ cm/s"}, "values": [{"smiles": "CCOCCN1CC(=O)N(C)[C@@H](CC(C)C)C(=O)N[C@@H](COC(C)(C)C)C(=O)N(C)[C@@H](Cc2ccccc2)C(=O)N(C)[C@@H](CC)C(=O)N[C@H](C(=O)N2CCCCC2)CC(=O)N[C@H](CC(C)C)C(=O)N(C)[C@@H](Cc2ccccc2)C(=O)N[C@@H](CC(C)C)C(=O)N(C)[C@@H](CC)C(=O)N[C@@H]([C@@H](C)O)C1=O", "note": "[pd416] ([dL][NMeF]L[NMeAbu]T[Gly(N-(CH2)2OEt)][NMeL]S(tBu)[NMeF][NMeAbu]D-Piperidide; lactam N-11)", "Papp A→B at 180 min": 3.1}, {"smiles": "CCOCCN1CC(=O)N(C)[C@@H](CC(C)C)C(=O)N[C@H](C(=O)N2CCCCC2)CC(=O)N(C)[C@@H](C(C)C)C(=O)N[C@@H](CC(C)C)C(=O)N(C)[C@@H](CC)C(=O)N(C)[C@@H](Cc2ccccc2)C(=O)N[C@@H](CC(C)C)C(=O)N(C)[C@@H](Cc2ccccc2)C(=O)N(C)[C@@H](CC)C(=O)N[C@@H]([C@@H](C)O)C1=O", "note": "[pd417] ([NMeV]L[NMeAbu][NMeF]L[NMeF][NMeAbu]T[Gly(N-(CH2)2OEt)][NMeL]D-Piperidide; lactam N-11)", "Papp A→B at 180 min": 1}, {"smiles": "CCOCCN1CC(=O)N(C)[C@@H](Cc2ccccc2)C(=O)N(C)[C@@H](CC(C)C)C(=O)N[C@@H](COC(C)(C)C)C(=O)N(C)[C@@H](CC(C)C)C(=O)N[C@H](C(=O)N2CCCCC2)CC(=O)N(C)CC(=O)N(C)[C@@H](Cc2ccccc2)C(=O)N[C@@H](C(C)C)C(=O)N(C)[C@@H](CC(C)C)C(=O)N[C@@H]([C@@H](C)O)C1=O", "note": "[pd418] ([Sar][NMeF]V[NMeL]T[Gly(N-(CH2)2OEt)][NMeF][NMeL]S(tBu)[NMeL]D-Piperidide; lactam N-11)", "Papp A→B at 180 min": 1.5}, {"smiles": "CCCCN1CC(=O)N(C)[C@@H](CC(C)C)C(=O)N[C@H](C(=O)N2CCCCC2)CC(=O)N(C)[C@@H](CC)C(=O)N[C@@H](CC(C)C)C(=O)N(C)[C@@H](CC(C)C)C(=O)N(C)[C@@H](Cc2ccccc2)C(=O)N[C@@H](CC)C(=O)N(C)[C@@H](Cc2ccccc2)C(=O)N(CCOCC)CC(=O)N[C@@H]([C@@H](C)O)C1=O", "note": "[pd419] ([NMeAbu]L[NMeL][NMeF][Abu][NMeF][Gly(N-(CH2)2OEt)]T[NBuGly][NMeL]D-Piperidide; lactam N-11)", "Papp A→B at 180 min": 2.3}, {"smiles": "CC[C@H]1C(=O)N(C)[C@@H](Cc2ccccc2)C(=O)N[C@@H](C)C(=O)N(C)[C@@H](CC(C)C)C(=O)N(C)[C@@H](CC)C(=O)N[C@@H]([C@@H](C)O)C(=O)N(CCOc2ccccc2)CC(=O)N(C)[C@@H](CC(C)C)C(=O)N[C@H](C(=O)N2CCCCC2)CC(=O)N(C)[C@@H](C(C)C)C(=O)N[C@@H](CC(C)C)C(=O)N1C", "note": "[pd420] ([NMeV]L[NMeAbu][NMeF]A[NMeL][NMeAbu]T[X9][NMeL]D-Piperidide; lactam N-11)", "Papp A→B at 180 min": 4.5}, {"smiles": "CC[C@H]1C(=O)N[C@@H]([C@@H](C)O)C(=O)N(C)CC(=O)N(C)[C@@H](Cc2ccccc2)C(=O)N(C)[C@@H](CC)C(=O)N[C@@H](COC(C)(C)C)C(=O)N(C)[C@@H](CC(C)C)C(=O)N[C@H](C(=O)N2CCCCC2)CC(=O)N(CCOc2ccccc2)CC(=O)N(C)[C@@H](CC(C)C)C(=O)N[C@@H](CC(C)C)C(=O)N1C", "note": "[pd421] ([X9][NMeL]L[NMeAbu]T[Sar][NMeF][NMeAbu]S(tBu)[NMeL]D-Piperidide; lactam N-11)", "Papp A→B at 180 min": 1.3}, {"smiles": "CCCCN1CC(=O)N(C)[C@@H](C)C(=O)N[C@@H](COC(C)(C)C)C(=O)N(C)[C@@H](CC(C)C)C(=O)N(CCOc2ccccc2)CC(=O)N[C@H](C(=O)N2CCCCC2)CC(=O)N[C@H](CC(C)C)C(=O)N(C)[C@@H](Cc2ccccc2)C(=O)N[C@@H](CC(C)C)C(=O)N(C)[C@@H](CC)C(=O)N[C@@H]([C@@H](C)O)C1=O", "note": "[pd422] ([dL][NMeF]L[NMeAbu]T[NBuGly][NMeA]S(tBu)[NMeL][X9]D-Piperidide; lactam N-11)", "Papp A→B at 180 min": 1}, {"smiles": "CC[C@H](C)[C@@H]1NC(=O)[C@H](CC(C)C)N(C)C(=O)[C@@H](C)NC(=O)C[C@@H](C(=O)N2CCCCC2)NC(=O)[C@H](CC)N(C)C(=O)[C@H](Cc2ccccc2)N(C)C(=O)[C@H](COC(C)(C)C)NC(=O)[C@H](CC(C)C)N(C)C(=O)[C@H](CC)N(C)C(=O)[C@H]([C@@H](C)O)NC(=O)CN(CCOc2ccccc2)C1=O", "note": "[pd423] ([dA][NMeL]I[X9]T[NMeAbu][NMeL]S(tBu)[NMeF][NMeAbu]D-Piperidide; lactam N-11)", "Papp A→B at 180 min": 1}, {"smiles": "CC[C@@H]1NC(=O)[C@H](Cc2ccccc2)N(C)C(=O)[C@H](CC(C)C)N(C)C(=O)[C@H](CC(C)C)NC(=O)[C@H](CC)N(C)C(=O)C[C@@H](C(=O)N2CCCCC2)NC(=O)[C@H](CC(C)C)N(C)C(=O)CN(C)C(=O)[C@H]([C@@H](C)O)NC(=O)CN(CCOc2ccccc2)C(=O)[C@H](CC(C)C)N(C)C1=O", "note": "[pd424] ([NMeAbu]L[NMeL][NMeF][Abu][NMeL][X9]T[Sar][NMeL]D-Piperidide; lactam N-11)", "Papp A→B at 180 min": 1.2}, {"smiles": "CCCN1CC(=O)N(C)[C@@H](CC(C)C)C(=O)N[C@H](C(=O)N2CCCCC2)CC(=O)N(C)[C@@H](C)C(=O)N[C@@H](COC[C@@H](C)O)C(=O)N(C)[C@@H](CC(C)C)C(=O)N(C)[C@@H](Cc2cccc(Cl)c2)C(=O)N[C@@H](CC(C)C)C(=O)N(C)[C@@H](Cc2ccccc2)C(=O)N(C)[C@@H]([C@@H](C)CC)C(=O)N[C@@H]([C@@H](C)O)C1=O", "note": "[pd425] ([NMeA]S(Propyl(2R-OH))[NMeL][NMePhe(3-Cl)]L[NMeF][NMeI]T[NPrGly][NMeL]D-Piperidide; lactam N-11)", "Papp A→B at 180 min": 1.2}, {"smiles": "CCCN1CC(=O)N(C)[C@@H](CC(C)C)C(=O)N[C@@H](COCCC(C)C)C(=O)N(C)[C@@H](Cc2ccccc2)C(=O)N(C)[C@@H](C(C)C)C(=O)N[C@H](C(=O)N2CCCCC2)CC(=O)N[C@H](C(C)C)C(=O)N(C)[C@@H](Cc2ccccc2)C(=O)N[C@@H](COCC(C)(C)O)C(=O)N(C)[C@@H](CC(C)C)C(=O)N[C@@H]([C@@H](C)O)C1=O", "note": "[pd426] ([dV][NMeF]S(CH2CMe2OH)[NMeL]T[NPrGly][NMeL]S(Isopentyl)[NMeF][NMeV]D-Piperidide; lactam N-11)", "Papp A→B at 180 min": 1.4}, {"smiles": "CC(C)C[C@@H]1NC(=O)[C@H](Cc2ccccc2)N(C)C(=O)[C@@H](C(C)C)NC(=O)C[C@@H](C(=O)N2CCCCC2)NC(=O)[C@H](CC(C)C)N(C)C(=O)[C@H](Cc2cccc(Cl)c2)N(C)C(=O)[C@H](COCC(C)(C)O)NC(=O)[C@H](CC(C)C)N(C)C(=O)CN(C)C(=O)[C@H]([C@@H](C)O)NC(=O)[C@H](CC(C)C)N(C)C1=O", "note": "[pd427] ([dV][NMeF]L[NMeL]T[Sar][NMeL]S(CH2CMe2OH)[NMePhe(3-Cl)][NMeL]D-Piperidide; lactam N-11)", "Papp A→B at 180 min": 1.3}, {"smiles": "CCCN1CC(=O)N(C)[C@@H](CC(C)C)C(=O)N[C@H](C(=O)N2CCCCC2)CC(=O)N(C)[C@@H](C)C(=O)N[C@@H](COCC(C)(C)O)C(=O)N(C)[C@@H](CC(C)C)C(=O)N(C)[C@@H](Cc2ccccc2)C(=O)N[C@@H](CC(C)C)C(=O)N(C)[C@@H](Cc2ccccc2)C(=O)N(C)[C@@H]([C@@H](C)CC)C(=O)N[C@@H]([C@@H](C)O)C1=O", "note": "[pd428] ([NMeA]S(CH2CMe2OH)[NMeL][NMeF]L[NMeF][NMeI]T[NPrGly][NMeL]D-Piperidide; lactam N-11)", "Papp A→B at 180 min": 2.8}, {"smiles": "CCCN1CC(=O)N(C)[C@@H](CC(C)C)C(=O)N[C@H](C(=O)N2CCCCC2)CC(=O)N(C)[C@@H](C)C(=O)N[C@@H](CC(C)C)C(=O)N(C)[C@@H](CC(C)C)C(=O)N(C)[C@@H](Cc2ccccc2)C(=O)N[C@@H](COCC(C)(C)O)C(=O)N(C)[C@@H](Cc2ccccc2)C(=O)N(C)[C@@H]([C@@H](C)CC)C(=O)N[C@@H]([C@@H](C)O)C1=O", "note": "[pd429] ([NMeA]L[NMeL][NMeF]S(CH2CMe2OH)[NMeF][NMeI]T[NPrGly][NMeL]D-Piperidide; lactam N-11)", "Papp A→B at 180 min": 3.3}, {"smiles": "CCCN1CC(=O)N(C)[C@@H](Cc2cccc(Cl)c2)C(=O)N(C)[C@@H](CC(C)C)C(=O)N[C@@H](COC(C)(C)C)C(=O)N(C)[C@@H](CC(C)C)C(=O)N[C@H](C(=O)N2CCCCC2)CC(=O)N(C)CC(=O)N(C)[C@@H](Cc2ccccc2)C(=O)N[C@@H](COCC(C)(C)O)C(=O)N(C)[C@@H](CC(C)C)C(=O)N[C@@H]([C@@H](C)O)C1=O", "note": "[pd430] ([Sar][NMeF]S(CH2CMe2OH)[NMeL]T[NPrGly][NMePhe(3-Cl)][NMeL]S(tBu)[NMeL]D-Piperidide; lactam N-11)", "Papp A→B at 180 min": 1.3}, {"smiles": "CCCN1CC(=O)N(C)[C@@H](CC(C)C)C(=O)N[C@@H](COCC(C)(C)O)C(=O)N(C)[C@@H](Cc2ccccc2)C(=O)N(C)[C@@H](CC(C)C)C(=O)N[C@H](C(=O)N2CCCCC2)CC(=O)N[C@H](C(C)C)C(=O)N(C)[C@@H](Cc2ccccc2)C(=O)N[C@@H](CC(C)C)C(=O)N(C)[C@@H](CC(C)C)C(=O)N[C@@H]([C@@H](C)O)C1=O", "note": "[pd432] ([dV][NMeF]L[NMeL]T[NPrGly][NMeL]S(CH2CMe2OH)[NMeF][NMeL]D-Piperidide; lactam N-11)", "Papp A→B at 180 min": 1.5}, {"smiles": "CC(C)CCOC[C@@H]1NC(=O)[C@H](CC(C)C)N(C)C(=O)CN(C)C(=O)[C@H]([C@@H](C)O)NC(=O)[C@H](CC(C)C)N(C)C(=O)[C@H](COCCC(C)(C)O)NC(=O)[C@H](Cc2ccccc2)N(C)C(=O)[C@@H](C(C)C)NC(=O)C[C@@H](C(=O)N2CCCCC2)NC(=O)[C@H](CC(C)C)N(C)C(=O)[C@H](Cc2ccccc2)N(C)C1=O", "note": "[pd433] ([dV][NMeF]S(Butyl(3-Me,3-OH))[NMeL]T[Sar][NMeL]S(Isopentyl)[NMeF][NMeL]D-Piperidide; lactam N-11)", "Papp A→B at 180 min": 1.4}]}]}
